Results taken from patent US20080032959A1, “Estrogen Receptor Modulators” (priority 2004, published 2008).

Columns and labels:
Assay type in all cases: in vivo, mouse
[1] = system: wild type and estrogen receptor beta knockout (βERKO) mice; experiment: Uterine weights after 3 days of treatment; details: treated 3 days, E2 0.2 mg/kg, A 5 or 10 mg/kg, uteri collected 24 hrs after last treatment
Procedure: Animals (n=5/group) were treated for 3 days and brain and uteri were collected 24 hrs after last treatment.

[2] = system: PR immunoreactive cells in the hippocampus; experiment: Murine brain PR ICC assay, hippocampus (PR regulated exclusively by ERα); details: 3 days
Procedure: (§1) Animals (n=5/group) were treated for 3 days and brains and uteri were collected 24 hours after the last treatment and processed for immunohistochemistry.
(§2) Female mice (12-16 wks of age) are ovariectomized by the vendor (C57BL/6s from Charles River) and shipped one week later. Animals are fed a soy-free rodent chow upon arrival at the Merck animal facility, where they are given an additional week to adjust to the new environment. […] Approximately 24 hours after the last dose, animals are deeply anesthetized with ketamine/xylazine and are transcardially perfused with 50 ml of 3.5% acrolein and 2% paraformaldehyde in 0.1 M sodium phosphate buffer (PB), pH 7.4. Brains are immediately removed and placed into ice cold 0.1 M PB and stored at 4 C overnight. Brains are sectioned at 40 μm on a vibrating microtome in 0.1M PB, transferred into cryoprotectant (30% sucrose; 30% ethylene glycol in 0.1 M PB, pH 7.4) and stored at −20° C. until processing for immunocytochemistry.
Free floating 40 μm sections are washed in cold 0.1 M phosphate buffered saline (PBS), pH 7.4, to thoroughly remove cryoprotectant. To insure consistent immunolabeling across animals, a screen-bottom 24-well tissue holder and fitted solid lucite tray containing buffer is used to conduct the experiment. Thus, all sections are co-incubated in the same solutions/conditions during the entire experiment. […]

[3] = system: Progesterone receptor (PR) protein in the dorsal raphe nucleus; experiment: Murine brain progestin receptor (PR) ICC assay, dorsal raphe nucleus; details: for PR induction in the dorsal raphe nucleus: βERKO mouse lacking functional ERβ, treated 3 days, E2 0.2 mg/kg, A 5 or 10 mg/kg, immunohistochemistry 24 h after last treatment
Procedure: as §1, §2
Free floating 40 μm sections are washed in cold 0.1 M phosphate buffered saline (PBS), pH 7.4, to thoroughly remove cryoprotectant. To insure consistent immunolabeling across animals, a screen-bottom 24-well tissue holder and fitted solid lucite tray containing buffer is used to conduct the experiment. Thus, all sections are co-incubated in the same solutions/conditions during the entire experiment. To deter non-specific staining in acrolein-fixed tissue, sections are washed in 1% sodium borohydride (NaBH4) in PBS for 30 minutes and rinsed 8 to 10 times with PBS. Endogenous peroxidase activity is inhibited by washing tissue in 0.3% hydrogen peroxide and 10% methanol in PBS for 15 minutes. Sections are washed in PBS and blocked in either 1) 2% normal goat serum in PBS with 0.05% Triton X-100 (PBST) for one hour, or 2) a mouse-on-mouse Ig blocking reagent (Vector) for 1 hour followed by a mouse protein concentrate (Vector) for 30 min. Sections are incubated with PR antibody in blocking buffer diluted to 1% normal serum over one night at RT and one night at 4 C, or three nights at 4 C. […]

Row | SMILES | uterine weight [1] | PR immunoreactive cells in the hippocampus ([2]; 5 mg/kg) | PR immunoreactive cells in the hippocampus ([2]; high dose 10 mg/kg) | ER-beta activity in brain ([3]; at the doses tested (A 5 or 10 mg/kg), 3 days) | PR induction in the dorsal raphe nucleus [3]
1 | C[C@]12CC[C@H]3[C@@H](CC=C4C[C@@H](O)CC[C@@]43C)[C@@H]1CC[C@@H]2O [A, delta-5-androstene-3-beta-17-beta-diol] | only a modest effect | no PR immunoreactivity | just an occasional, lightly-stained cell | full ER-beta activity in brain | complete loss of PR induction
2 | C[C@]12CC[C@@H]3c4ccc(O)cc4CC[C@H]3[C@@H]1CC[C@@H]2O [E2, 17β-estradiol, reference compound] | robustly increased uterine weight | – | – | – | attenuation of PR induction
